Tested on: soluble epoxide hydrolase (sEH)
Experiment: Fluorescent Assay for Mouse and Human Soluble Epoxide Hydrolase (CMNPC substrate)
Format: biochemical
Details: Concentration 500 nM
From the text: Fluorescent Assay for Mouse and Human Soluble Epoxide Hydrolase Recombinant mouse sEH (MsEH) and human sEH (HsEH) were produced in a baculovirus expression system as previously reported. Grant et al., J. Biol. Chem., 268:17628-17633 (1993); Beetham et al., Arch. Biochem. Biophys., 305:197-201 (1993). The expressed proteins were purified from cell lysate by affinity chromatography. Wixtrom et al., Anal. Biochem., 169:71-80 (1988). Protein concentration was quantified using the Pierce BCA assay using bovine serum albumin as the calibrating standard. The preparations were at least 97% pure as judged by SDS-PAGE and scanning densitometry. They contained no detectable esterase or glutathione transferase activity which can interfere with the assay. The assay was also evaluated with similar results in crude cell lysates or homogenate of tissues. The IC50s for each inhibitor were according to the following procedure: [drawing 218] […] Jones P. D. et. al.; Analytical Biochemistry 2005; 343: pp. 66-75) Bis/Tris HCl 25 mM pH 7.0 containing 0.1 mg/mL of BSA (buffer […] at 0.25 mM in DMSO. Mother solution of enzyme in buffer A (Mouse sEH at 6 μg/mL and Human sEH at 5 μg/mL). Inhibitor dissolved in DMSO at the appropriate concentration. In a black 96 well plate, fill all the wells with 150 μL of buffer A. Add 2 μL of DMSO in well A2 and A3, and then add 2 μL of inhibitor solution in A1 and A4 through A12. Add 150 μL of buffer A in row A, then mix several time and transfer 150 μL to row B. Repeat this operation up to row H. The 150 μL removed from row H is discarded. Add 20 μL of buffer A in column 1 and 2, then add 20 μL of enzyme solution to column 3 to 12. Incubate the plate for 5 minutes in the plate reader at 30° C. During incubation prepare the working solution of substrate by mixing 3.68 mL of buffer A (4×0.920 mL) with 266 μL (2×133 μL) of substrate solution). At t=0, add 30 μL of working substrate solution with multi-channel pipette labeled “Briggs 303” and start the reading ([S]final: 5 μM). Read with ex: 330 nm (20 nm) and em: 465 nm (20 nm) every 30 second for 10 minutes. The velocities are used to analyze and calculate the IC50s. Tables 4-6 show the activity of compounds when tested with the assay at 50, 500, 5000, 50000, and 500000 nM.

Row | SMILES | % Inhibition [%]
1 | O=C(Nc1cccc(OCCCN2CCOCC2)c1)C(=O)c1ccc(C(F)(F)F)cc1 [Compound 1, N-[3-(3-Morpholin-4-yl-propoxy)-phenyl]-2-oxo-2-(4-trifluoromethyl-phenyl)-acetamide] | 65
2 | O=C(NCC12CC3CC(CC(C3)C1)C2)C(O)Cc1ccc(OCc2ccccc2)cc1 (stereo not drawn) [Compound 106, N-Adamantan-1-ylmethyl-3-(4-benzyloxy-phenyl)-2-hydroxy-propionamide] | 82
3 | O=C(Nc1cccc(OCc2ccccc2)c1)C(O)CC12CC3CC(CC(C3)C1)C2 (stereo not drawn) [Compound 115, 3-Adamantan-1-yl-N-(3-benzyloxy-phenyl)-2-hydroxy-propionamide] | 89

Same assay, conditions: Concentration 5000 nM

Row | % Inhibition [%] | SMILES
4 | 64 | O=C(CC12CC3CC(CC(C3)C1)C2)C(=O)Nc1ccc(OCc2ccccc2)cc1 [Compound 17, 3-Adamantan-1-yl-N-(4-benzyloxy-phenyl)-2-oxo-propionamide]
5 | 87 | O=C(CC12CC3CC(CC(C3)C1)C2)C(=O)NCCc1ccc(OCc2ccccc2)cc1 [Compound 24]
6 | 87 | O=C(NC12CC3CC(CC(C3)C1)C2)C(O)c1cccc(OCc2ccccc2)c1 (stereo not drawn) [Compound 103, N-Adamantan-1-yl-2-(3-benzyloxy-phenyl)-2-hydroxy-acetamide]
7 | 91 | O=C(NC12CC3CC(CC(C3)C1)C2)C(O)Cc1ccc(OCc2ccccc2)cc1 (stereo not drawn) [Compound 107, N-Adamantan-1-yl-3-(4-benzyloxy-phenyl)-2-hydroxy-propionamide]
8 | 95 | O=C(Nc1ccc(OCc2ccccc2)cc1)C(O)C12CC3CC(CC(C3)C1)C2 (stereo not drawn) [Compound 118, 2-Adamantan-1-yl-N-(4-benzyloxy-phenyl)-2-hydroxy-acetamide]

Continued, molecule first:

Row | SMILES | % Inhibition [%]
9 | O=C(Nc1cccc(OCc2ccccc2)c1)C(=O)c1ccc(C(F)(F)F)cc1 [Compound 5, N-(3-Benzyloxy-phenyl)-2-oxo-2-(4-trifluoromethyl-phenyl)-acetamide] | 71
10 | O=C(Cc1ccc(OCc2ccccc2)cc1)C(=O)NCC12CC3CC(CC(C3)C1)C2 [Compound 6, N-Adamantan-1-ylmethyl-3-(4-benzyloxy-phenyl)-2-oxo-propionamide] | 71
11 | O=C(Cc1ccc(OCc2ccccc2)cc1)C(=O)NC12CC3CC(CC(C3)C1)C2 [Compound 7, N-Adamantan-1-yl-3-(4-benzyloxy-phenyl)-2-oxo-propionamide] | 75
12 | O=C(Nc1ccc(-n2ccnc2)cc1)C(=O)c1ccc(C(F)(F)F)cc1 [Compound 8, N-(4-Imidazol-1-yl-phenyl)-2-oxo-2-(4-trifluoromethyl-phenyl)-acetamide] | 85
13 | Cc1ccc(S(=O)(=O)N2CCC(NC(=O)C(=O)C3CCCCC3)CC2)cc1 [Compound 10, 2-Cyclohexyl-2-oxo-N-[1-(toluene-4-sulfonyl)-piperidin-4-yl]-acetamide] | 70
14 | O=C(CC12CC3CC(CC(C3)C1)C2)C(=O)Nc1cccc(OCc2ccccc2)c1 [Compound 15, 3-Adamantan-1-yl-N-(3-benzyloxy-phenyl)-2-oxo-propionamide] | 86
15 | Cc1ccc(S(=O)(=O)N2CCC(NC(=O)C(=O)C34CC5CC(CC(C5)C3)C4)CC2)cc1 [Compound 18, 2-Adamantan-1-yl-2-oxo-N-[1-(toluene-4-sulfonyl)-piperidin-4-yl]-acetamide] | 93
16 | Cc1ccc(S(=O)(=O)N2CCC(NC(=O)C(=O)CC34CC5CC(CC(C5)C3)C4)CC2)cc1 [Compound 19, 3-Adamantan-1-yl-2-oxo-N-[1-(toluene-4-sulfonyl)-piperidin-4-yl]-propionamide] | 99
17 | O=C(Nc1ccc(OCc2ccccc2)cc1)C(=O)C12CC3CC(CC(C3)C1)C2 [Compound 20] | 93
18 | O=C(Nc1ccc(-n2ccnc2)cc1)C(=O)C12CC3CC(CC(C3)C1)C2 [Compound 21] | 93
19 | COc1ccc(C(=O)C(=O)NCC23CC4CC(CC(C4)C2)C3)cc1 [Compound 22] | 78
20 | O=C(Nc1cccc(OCCCN2CCOCC2)c1)C(O)c1ccc(C(F)(F)F)cc1 (stereo not drawn) [Compound 101, 2-Hydroxy-N-[3-(3-morpholin-4-yl-propoxy)-phenyl]-2-(4-trifluoromethyl-phenyl)-acetamide] | 95
21 | O=C(Nc1cccc(OCc2ccccc2)c1)C(O)c1ccc(C(F)(F)F)cc1 (stereo not drawn) [Compound 105, N-(3-Benzyloxy-phenyl)-2-hydroxy-2-(4-trifluoromethyl-phenyl)-acetamide] | 99
22 | O=C(Nc1cccc(OCc2ccccc2)c1)C(O)C1CCCCC1 (stereo not drawn) [Compound 113, N-(3-Benzyloxy-phenyl)-2-cyclohexyl-2-hydroxy-acetamide] | 66
23 | CCCC(=O)N1CCC(NC(=O)C(O)C2CCCCC2)CC1 (stereo not drawn) [Compound 116, N-(1-Butyryl-piperidin-4-yl)-2-cyclohexyl-2-hydroxy-acetamide] | 81

Same assay, conditions: Concentration 50000 nM

Row | % Inhibition [%] | SMILES
24 | 96 | O=C(NC12CC3CC(CC(C3)C1)C2)C(=O)c1cccc(OCc2ccccc2)c1 [Compound 3, N-Adamantan-1-yl-2-(3-benzyloxy-phenyl)-2-oxo-acetamide]
25 | 87 | COC1CCC(NC(=O)C(=O)c2ccc(C(F)(F)F)cc2)CC1 (stereo not drawn) [Compound 4, N-(4-Methoxy-cyclohexyl)-2-oxo-2-(4-trifluoromethyl-phenyl)-acetamide]
26 | 72 | Cc1ccc(S(=O)(=O)N2CCC(NC(=O)C(=O)c3ccc(C(F)(F)F)cc3)CC2)cc1 [Compound 9, 2-Oxo-N-[1-(toluene-4-sulfonyl)-piperidin-4-yl]-2-(4-trifluoromethyl-phenyl)-acetamide]
27 | 62 | CCCC(=O)N1CCC(NC(=O)C(=O)C2CCCCC2)CC1 [Compound 16, N-(1-Butyryl-piperidin-4-yl)-2-cyclohexyl-2-oxo-acetamide]
28 | 93 | O=C(CCc1ccc(C(F)(F)F)cc1)C(=O)Nc1ccc(OCc2ccccc2)cc1 [Compound 23]
29 | 79 | COC1CCC(NC(=O)C(O)c2ccc(C(F)(F)F)cc2)CC1 (stereo not drawn) [Compound 104, 2-Hydroxy-N-(4-methoxy-cyclohexyl)-2-(4-trifluoromethyl-phenyl)-acetamide]

Continued, molecule first:

Row | SMILES | % Inhibition [%]
30 | O=C(Nc1ccc(C(=O)NCCN2CCOCC2)cc1)C(=O)c1ccc(C(F)(F)F)cc1 [Compound 2, N-(2-Morpholin-4-yl-ethyl)-4-[2-oxo-2-(4-trifluoromethyl-phenyl)-acetylamino]-benzamide] | 82
31 | O=C(Nc1ccc(-n2ccnc2)cc1)C(=O)C1CCCCC1 [Compound 11, 2-Cyclohexyl-N-(4-imidazol-1-yl-phenyl)-2-oxo-acetamide] | 80
32 | O=C(Nc1cccc(OCc2ccccc2)c1)C(=O)C1CCCCC1 [Compound 12, N-(3-Benzyloxy-phenyl)-2-cyclohexyl-2-oxo-acetamide] | 99
33 | CCCC(=O)N1CCC(NC(=O)C(=O)c2ccc(C(F)(F)F)cc2)CC1 [Compound 14, N-(1-Butyryl-piperidin-4-yl)-2-oxo-2-(4-trifluoromethyl-phenyl)-acetamide] | 77
34 | O=C(NCCN1CCOCC1)c1ccc(NC(=O)C(O)c2ccc(C(F)(F)F)cc2)cc1 (stereo not drawn) [Compound 102, 4-[2-Hydroxy-2-(4-trifluoromethyl-phenyl)-acetylamino]-N-(2-morpholin-4-yl-ethyl)-benzamide] | 63
35 | Cc1ccc(S(=O)(=O)N2CCC(NC(=O)C(O)c3ccc(C(F)(F)F)cc3)CC2)cc1 (stereo not drawn) [Compound 108, 2-Hydroxy-N-[1-(toluene-4-sulfonyl)-piperidin-4-yl]-2-(4-trifluoromethyl-phenyl)-acetamide] | 80
36 | O=C(Nc1ccc(-n2ccnc2)cc1)C(O)C1CCCCC1 (stereo not drawn) [Compound 112, 2-Cyclohexyl-2-hydroxy-N-(4-imidazol-1-yl-phenyl)-acetamide] | 80
37 | CCCC(=O)N1CCC(NC(=O)C(O)c2ccc(C(F)(F)F)cc2)CC1 (stereo not drawn) [Compound 114, N-(1-Butyryl-piperidin-4-yl)-2-hydroxy-2-(4-trifluoromethyl-phenyl)-acetamide] | 74
38 | O=C(Nc1ccc(OCc2ccccc2)cc1)C(O)CC12CC3CC(CC(C3)C1)C2 (stereo not drawn) [Compound 117, 3-Adamantan-1-yl-N-(4-benzyloxy-phenyl)-2-hydroxy-propionamide] | 81

Same assay, conditions: Concentration 500000 nM

Row | SMILES | % Inhibition [%]
39 | O=C(Nc1ccc(-n2ccnc2)cc1)C(O)c1ccc(C(F)(F)F)cc1 (stereo not drawn) [Compound 109, 2-Hydroxy-N-(4-imidazol-1-yl-phenyl)-2-(4-trifluoromethyl-phenyl)-acetamide] | 80

Source: patent US20080200467A1, “SOLUBLE EPOXIDE HYDROLASE INHIBITORS” (Arete Therapeutics, Inc., priority 2006, published 2008)
